Experimental data reported in US9371320B2, “Heterocyclic compound” (TAKEDA PHARMACEUTICAL COMPANY LIMITED, priority 2012, dated 2016).
Where two headings read alike, the source gives them in different places.

Columns and labels:
JAK1 = target: T1, JAK1 (Homo sapiens, UniProt P23458); experiment: JAK1 enzyme inhibition test (LANCE method); format: biochemical; conditions: for inhibition at 1 µM: read-out: Inhibitory rate (%) JAK1 1 μM; for inhibition at 10 µM: read-out: Inhibitory rate (%) JAK1 10 μM
T1 construct: purchased Invitrogen
T1 sequence (P23458 whole entry): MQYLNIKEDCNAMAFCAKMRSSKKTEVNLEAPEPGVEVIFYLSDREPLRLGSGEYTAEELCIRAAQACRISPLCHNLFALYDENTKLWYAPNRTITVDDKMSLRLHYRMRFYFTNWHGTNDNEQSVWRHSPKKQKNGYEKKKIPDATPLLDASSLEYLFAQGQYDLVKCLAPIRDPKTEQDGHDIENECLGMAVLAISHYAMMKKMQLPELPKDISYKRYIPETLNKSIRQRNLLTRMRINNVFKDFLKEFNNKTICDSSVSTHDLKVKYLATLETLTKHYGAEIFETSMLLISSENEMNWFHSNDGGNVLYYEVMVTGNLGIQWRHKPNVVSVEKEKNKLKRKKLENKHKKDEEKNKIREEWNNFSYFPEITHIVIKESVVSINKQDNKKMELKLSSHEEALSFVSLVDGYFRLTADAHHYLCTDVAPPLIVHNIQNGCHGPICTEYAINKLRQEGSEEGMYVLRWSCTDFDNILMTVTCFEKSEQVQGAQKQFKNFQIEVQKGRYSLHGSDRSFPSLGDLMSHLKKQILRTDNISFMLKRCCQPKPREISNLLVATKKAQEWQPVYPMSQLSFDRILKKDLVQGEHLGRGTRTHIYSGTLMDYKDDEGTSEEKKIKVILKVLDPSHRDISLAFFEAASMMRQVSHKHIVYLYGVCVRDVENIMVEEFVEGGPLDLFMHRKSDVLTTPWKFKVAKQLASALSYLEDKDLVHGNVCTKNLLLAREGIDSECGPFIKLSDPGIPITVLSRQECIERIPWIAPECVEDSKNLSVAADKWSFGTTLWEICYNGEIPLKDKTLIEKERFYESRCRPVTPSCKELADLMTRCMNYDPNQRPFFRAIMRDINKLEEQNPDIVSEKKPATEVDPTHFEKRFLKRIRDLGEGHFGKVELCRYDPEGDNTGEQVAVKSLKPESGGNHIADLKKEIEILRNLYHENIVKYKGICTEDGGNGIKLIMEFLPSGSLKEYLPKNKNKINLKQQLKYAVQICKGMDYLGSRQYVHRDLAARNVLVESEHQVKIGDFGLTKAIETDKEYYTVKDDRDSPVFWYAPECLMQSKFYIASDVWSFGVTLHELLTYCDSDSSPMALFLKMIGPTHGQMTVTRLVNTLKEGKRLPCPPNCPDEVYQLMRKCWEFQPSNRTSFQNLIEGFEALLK
How it was run: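 TR-FRET (LANCE) kinase assay using JAK1 at 187.5 ng/mL, ULight-JAK1 peptide at 300 nM and ATP at 150 μM, given as solution concentrations before mixing. Buffer was 50 mM HEPES pH 7.5 with 10 mM MgCl2 and 2 mM DTT, and the reaction ran 1 h at room temperature. Eu anti-phosphotyrosine signal at 665 nm was expressed relative to a no-enzyme well, taken as 100% inhibition.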

Tyk2 = target: T2, Tyk2 (Homo sapiens, UniProt P29597); experiment: Tyk2 enzyme inhibition test (LANCE method); format: biochemical; conditions: for inhibition at 1 µM: read-out: Inhibitory rate (%) Tyk2 1 μM; for inhibition at 10 µM: test compound 10 μM, read-out: Inhibitory rate (%) Tyk2 10 μM
T2 construct: purchased Invitrogen
T2 sequence (P29597 whole entry): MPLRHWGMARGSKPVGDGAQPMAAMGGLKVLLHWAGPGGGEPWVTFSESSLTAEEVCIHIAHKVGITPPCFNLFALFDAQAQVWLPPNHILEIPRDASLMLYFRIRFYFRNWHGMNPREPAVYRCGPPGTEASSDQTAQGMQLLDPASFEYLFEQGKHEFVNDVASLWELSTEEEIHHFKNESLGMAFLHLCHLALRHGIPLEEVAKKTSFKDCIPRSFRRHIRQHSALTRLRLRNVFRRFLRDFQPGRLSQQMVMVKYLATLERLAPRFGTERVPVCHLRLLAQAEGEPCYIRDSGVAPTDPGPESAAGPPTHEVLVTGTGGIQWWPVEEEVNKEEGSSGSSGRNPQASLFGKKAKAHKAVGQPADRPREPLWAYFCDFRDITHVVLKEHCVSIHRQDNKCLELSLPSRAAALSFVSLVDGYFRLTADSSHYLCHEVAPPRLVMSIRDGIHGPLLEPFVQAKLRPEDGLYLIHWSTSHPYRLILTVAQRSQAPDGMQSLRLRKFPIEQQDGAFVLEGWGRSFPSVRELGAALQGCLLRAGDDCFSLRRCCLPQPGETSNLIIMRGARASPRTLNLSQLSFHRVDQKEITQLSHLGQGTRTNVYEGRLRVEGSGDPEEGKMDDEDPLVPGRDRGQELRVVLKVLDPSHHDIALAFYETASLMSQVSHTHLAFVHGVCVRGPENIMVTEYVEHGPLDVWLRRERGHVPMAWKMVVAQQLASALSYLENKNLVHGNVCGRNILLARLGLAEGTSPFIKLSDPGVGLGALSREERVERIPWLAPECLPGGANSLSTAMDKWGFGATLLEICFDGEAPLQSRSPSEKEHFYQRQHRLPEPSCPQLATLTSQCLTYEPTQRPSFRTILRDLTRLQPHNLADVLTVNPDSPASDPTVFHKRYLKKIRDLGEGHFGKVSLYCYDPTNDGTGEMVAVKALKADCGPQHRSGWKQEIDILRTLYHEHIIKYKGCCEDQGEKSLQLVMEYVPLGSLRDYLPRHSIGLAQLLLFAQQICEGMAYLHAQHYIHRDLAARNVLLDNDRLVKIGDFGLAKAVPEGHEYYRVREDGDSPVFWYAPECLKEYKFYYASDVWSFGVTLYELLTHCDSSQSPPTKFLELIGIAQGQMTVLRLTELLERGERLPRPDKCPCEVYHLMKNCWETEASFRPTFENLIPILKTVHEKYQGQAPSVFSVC
How it was run: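 Recombinant Tyk2 (375 ng/mL stock) with ULight-JAK1 peptide (300 nM stock) and ATP (30 μM stock) in HEPES pH 7.5/MgCl2/EGTA/DTT buffer, 1 h at room temperature. Stopped with EDTA plus Eu-anti-phosphotyrosine antibody; TR-FRET read at 665 nm after 1 h. No-enzyme wells define 100% inhibition.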

[1] = test compound 10 μM (Ex. 182-220), beside Tyk2 1 μM

Row | SMILES | inhibition at 1 µM (JAK1; test compound 1 μM) [%] | inhibition at 1 µM (Tyk2; test compound 1 μM) [%] | further results
1 | NS(=O)(=O)c1ccc(-c2nn(C3CCC(F)(F)CC3)c3cc[nH]c(=O)c23)cc1 [Example 290, 4-(1-(4,4-difluorocyclohexyl)-4-oxo-4,5-dihydro-1H-pyrazolo[4,3-c]pyridin-3-yl)benzenesulfonamide] | 98 | 95 | –
2 | O=C(CO)N1CCN(c2ccc(-c3nn(-c4c(F)cccc4F)c4cc[nH]c(=O)c34)cc2)CC1 [Example 312, 1-(2,6-difluorophenyl)-3-(4-(4-glycoloylpiperazin-1-yl)phenyl)-1,5-dihydro-4H-pyrazolo[4,3-c]pyridin-4-one] | 94 | 99 | –
3 | NC(=O)c1ccc(F)c(-c2nn(-c3c(F)cccc3F)c3c(Cl)c[nH]c(=O)c23)c1 [Example 269, 3-(7-chloro-1-(2,6-difluorophenyl)-4-oxo-4,5-dihydro-1H-pyrazolo[4,3-c]pyridin-3-yl)-4-fluorobenzamide] | – | – | inhibition at 10 µM (JAK1; test compound 10 μM): 24%; inhibition at 10 µM (Tyk2): 29%
4 | O=C1Cc2cc(-c3nn(C4CCCC4)c4cc[nH]c(=O)c34)ccc2N1 [Example 58, 1-cyclopentyl-3-(2-oxo-2,3-dihydro-1H-indol-5-yl)-1,5-dihydro-4H-pyrazolo[4,3-c]pyridin-4-one] | 86 | 91 | –
5 | NC(=O)c1ccc(-c2nn(-c3c(F)cccc3F)c3c(Cl)c[nH]c(=O)c23)cc1F [Example 215, 4-(7-chloro-1-(2,6-difluorophenyl)-4-oxo-4,5-dihydro-1H-pyrazolo[4,3-c]pyridin-3-yl)-2-fluorobenzamide] | – | 94 | inhibition at 10 µM (JAK1; [1]): 22%
6 | Cc1c[nH]c(=O)c2c(-c3csc(C(N)=O)c3)nn(C3CCCC3)c12 [Example 281, 4-(1-cyclopentyl-7-methyl-4-oxo-4,5-dihydro-1H-pyrazolo[4,3-c]pyridin-3-yl)thiophene-2-carboxamide] | 96 | 96 | –
7 | CNC(=O)c1cc(F)cc(-c2nn(-c3c(F)cccc3F)c3c(Cl)c[nH]c(=O)c23)c1 [Example 273, 3-(7-chloro-1-(2,6-difluorophenyl)-4-oxo-4,5-dihydro-1H-pyrazolo[4,3-c]pyridin-3-yl)-5-fluoro-N-methylbenzamide] | 1 | 71 | –
8 | N#CCc1cc(-c2nn(-c3c(F)cccc3F)c3c(Cl)c[nH]c(=O)c23)cs1 [Example 152, (4-(7-chloro-1-(2,6-difluorophenyl)-4-oxo-4,5-dihydro-1H-pyrazolo[4,3-c]pyridin-3-yl)-2-thienyl)acetonitrile] | 97 | 99 | –
9 | NS(=O)(=O)c1ccc(-c2cn([C@H]3CC[C@@H](O)CC3)c3cc[nH]c(=O)c23)cc1 [Example 32, 4-(1-(cis-4-hydroxycyclohexyl)-4-oxo-4,5-dihydro-1H-pyrrolo[3,2-c]pyridin-3-yl)benzenesulfonamide] | 98 | 95 | –
10 | NC(=O)c1cc(-c2nn(C3CCC(=O)CC3)c3cc[nH]c(=O)c23)cs1 [Example 170, 4-(4-oxo-1-(4-oxocyclohexyl)-4,5-dihydro-1H-pyrazolo[4,3-c]pyridin-3-yl)thiophene-2-carboxamide] | 99 | 98 | –
11 | CN(C)C(=O)c1cc(-c2nn(C3CCCC3)c3cc[nH]c(=O)c23)cs1 [Example 286, 4-(1-cyclopentyl-4-oxo-4,5-dihydro-1H-pyrazolo[4,3-c]pyridin-3-yl)-N,N-dimethylthiophene-2-carboxamide] | 98 | 97 | –
12 | CNC(=O)c1ccc(F)c(-c2nn(-c3c(F)cccc3F)c3c(Cl)c[nH]c(=O)c23)c1 [Example 271, 3-(7-chloro-1-(2,6-difluorophenyl)-4-oxo-4,5-dihydro-1H-pyrazolo[4,3-c]pyridin-3-yl)-4-fluoro-N-methylbenzamide] | – | – | inhibition at 10 µM (JAK1; test compound 10 μM): -1%; inhibition at 10 µM (Tyk2): 26%
13 | CNC(=O)Cc1ccc(F)c(-c2nn(-c3c(F)cccc3F)c3cc[nH]c(=O)c23)c1 [Example 293, 2-(3-(1-(2,6-difluorophenyl)-4-oxo-4,5-dihydro-1H-pyrazolo[4,3-c]pyridin-3-yl)-4-fluorophenyl)-N-methylacetamide] | – | – | inhibition at 10 µM (JAK1; test compound 10 μM): 0%; inhibition at 10 µM (Tyk2): 22%
14 | NS(=O)(=O)c1ccc(-c2nn(CC3CCOC3)c3cc[nH]c(=O)c23)cc1 (stereo not shown) [Example 115, 4-(4-oxo-1-(tetrahydrofuran-3-ylmethyl)-4,5-dihydro-1H-pyrazolo[4,3-c]pyridin-3-yl)benzenesulfonamide] | 87 | 66 | –
15 | NC(=O)c1cc(-c2nn(C3CCCC3)c3c(C4CC4)c[nH]c(=O)c23)cs1 [Example 282, 4-(1-cyclopentyl-7-cyclopropyl-4-oxo-4,5-dihydro-1H-pyrazolo[4,3-c]pyridin-3-yl)thiophene-2-carboxamide] | 76 | 85 | –
16 | NS(=O)(=O)c1ccc(-c2nn(C3CCOC3)c3cc[nH]c(=O)c23)cc1 (stereo not shown) [Example 84, 4-(4-oxo-1-(tetrahydrofuran-3-yl)-4,5-dihydro-1H-pyrazolo[4,3-c]pyridin-3-yl)benzenesulfonamide] | – | – | Inhibitory rate (%) JAK1 1 μM (JAK1; test compound 1 μM): 84%; Inhibitory rate (%) Tyk2 1 μM (Tyk2; test compound 1 μM): 58%
17 | NC(=O)c1cccc(-c2nn(-c3c(F)cccc3F)c3cc[nH]c(=O)c23)c1 [Example 255, 3-(1-(2,6-difluorophenyl)-4-oxo-4,5-dihydro-1H-pyrazolo[4,3-c]pyridin-3-yl)benzamide] | 93 | 98 | –
18 | N#Cc1c[nH]c(=O)c2c(-c3cn[nH]c3)nn(-c3c(F)cccc3F)c12 [Example 228, 1-(2,6-difluorophenyl)-4-oxo-3-(1H-pyrazol-4-yl)-4,5-dihydro-1H-pyrazolo[4,3-c]pyridine-7-carbonitrile] | 85 | 99 | –
19 | CN1CCN(c2ccc(-c3nn(-c4c(F)cccc4F)c4cc[nH]c(=O)c34)cc2)C1=O [Example 240, 1-(2,6-difluorophenyl)-3-(4-(3-methyl-2-oxoimidazolidin-1-yl)phenyl)-1,5-dihydro-4H-pyrazolo[4,3-c]pyridin-4-one] | 88 | 99 | –
20 | N#Cc1c[nH]c(=O)c2c(-c3ccc(CC(N)=O)cc3)cn(C3CCCC3)c12 [Example 95, 2-(4-(7-cyano-1-cyclopentyl-4-oxo-4,5-dihydro-1H-pyrrolo[3,2-c]pyridin-3-yl)phenyl)acetamide] | 86 | 98 | –
21 | COC(=O)c1cc(-c2nn(C3CCOCC3)c3cc[nH]c(=O)c23)cs1 [Example 21, methyl 4-(4-oxo-1-(tetrahydro-2H-pyran-4-yl)-4,5-dihydro-1H-pyrazolo[4,3-c]pyridin-3-yl)thiophene-2-carboxylate] | 97 | 95 | –
22 | NC(=O)Cn1cc(-c2nn(-c3c(F)cccc3F)c3c(Cl)c[nH]c(=O)c23)cn1 [Example 190, 2-(4-(7-chloro-1-(2,6-difluorophenyl)-4-oxo-4,5-dihydro-1H-pyrazolo[4,3-c]pyridin-3-yl)-1H-pyrazol-1-yl)acetamide] | – | 99 | inhibition at 10 µM (JAK1; [1]): 81%
23 | O=c1[nH]ccc2c1c(-c1ccc3c(c1)OCO3)nn2C1CCCC1 [Example 49, 3-(1,3-benzodioxol-5-yl)-1-cyclopentyl-1,5-dihydro-4H-pyrazolo[4,3-c]pyridin-4-one] | 85 | 89 | –
24 | O=c1[nH]cc(Cl)c2c1c(-c1csc(CN3CCOCC3)c1)nn2-c1c(F)cccc1F [Example 203, 7-chloro-1-(2,6-difluorophenyl)-3-(5-(morpholin-4-ylmethyl)-3-thienyl)-1,5-dihydro-4H-pyrazolo[4,3-c]pyridin-4-one] | – | 100 | inhibition at 10 µM (JAK1; [1]): 81%
25 | NC(=O)c1cc(F)c(-n2nc(-c3ccc(N4CCOCC4)cc3)c3c(=O)[nH]ccc32)c(F)c1 [Example 251, 3,5-difluoro-4-(3-(4-(morpholin-4-yl)phenyl)-4-oxo-4,5-dihydro-1H-pyrazolo[4,3-c]pyridin-1-yl)benzamide] | 96 | 99 | –
26 | NC(=O)c1cc(-c2nn(-c3c(F)cccc3F)c3c(Br)c[nH]c(=O)c23)cs1 [Example 144, 4-(7-bromo-1-(2,6-difluorophenyl)-4-oxo-4,5-dihydro-1H-pyrazolo[4,3-c]pyridin-3-yl)thiophene-2-carboxamide] | 99 | 95 | –
27 | N#CCc1ccc(-c2nn(-c3c(F)cccc3F)c3c(Cl)c[nH]c(=O)c23)cc1 [Example 116, (4-(7-chloro-1-(2,6-difluorophenyl)-4-oxo-4,5-dihydro-1H-pyrazolo[4,3-c]pyridin-3-yl)phenyl)acetonitrile] | 89 | 99 | –
28 | CNC(=O)C1CCN(c2ccc(-c3nn(-c4c(F)cccc4F)c4cc[nH]c(=O)c34)cc2)CC1 [Example 310, 1-(4-(1-(2,6-difluorophenyl)-4-oxo-4,5-dihydro-1H-pyrazolo[4,3-c]pyridin-3-yl)phenyl)-N-methylpiperidine-4-carboxamide] | 93 | 100 | –
29 | CC(C)(C)n1nc(-c2ccc(N3CCOCC3)cc2)c2c(=O)[nH]ccc21 [Example 243, 1-tert-butyl-3-(4-(morpholin-4-yl)phenyl)-1,5-dihydro-4H-pyrazolo[4,3-c]pyridin-4-one] | 52 | 76 | –
